Laboratory results taken from US20150125542A1, “TIE2 Activator, Vascular Endothelial Growth Factor (VEGF) Inhibitor, Angiogenesis Inhibitor, Vascular Maturing Agent, Vascular Normalizing Agent and Vascular Stabilizing Agent, and Pharmaceutical Composition” (Maruzen Pharmaceuticals Co., Ltd., priority 2010, published 2015).

Tests used:
[1] = test system: human normal umbilical vein vascular endothelial cells co-cultured with human normal dermal fibroblasts; assay: Angiogenesis inhibitory effect test (angiogenesis kit, number of luminal branching, VEGF-A); assay type: cell-based; details: VEGF-A (+) 10 ng/mL
Experimental: The pharmacological effect, i.e., angiogenesis inhibitory effect of the hawthorn extract was evaluated by measuring a decrease of the number of vascular branching by means of image analysis as follows. At first, human normal umbilical vein vascular endothelial cells were co-cultured with human normal dermal fibroblasts at a constant ratio using the angiogenesis kit (product of KURABO INDUSTRIES LTD.) to a proliferative state at the early stage of lumen formation. The test sample, the hawthorn extract (fruits) (HAWTHORN EXTRACT POWDER MF, product of MARUZEN PHARMACEUTICALS CO., LTD.), was added to media so as to have concentrations described in Table 2 in the presence of 10 ng/mL of vascular endothelial cell growth factor-A (VEGF-A) (product of KURABO INDUSTRIES LTD.), followed by incubation at 37° C. and 5% CO2. […] The CD31 (PECAM-1) in HUVEC cells was stained with the lumen staining kit (CD31, product of KURABO INDUSTRIES LTD.) The stained cells in the wells were photographed and counted for the number of luminal branching. Based on the thus-obtained number of luminal branching, the angiogenesis inhibitory effect was evaluated.

Tie2 = biological target: T1, Tie2 (Homo sapiens, UniProt Q02763); assay: Tie2 activating effect (immunoassay) test in HUVECs; assay type: cell-based
T1 construct: endogenous in cells; host or cells: HUVEC (human umbilical vein endothelial cells)
Experimental: The pharmacological effect of the hawthorn extract was evaluated by detecting the amount of phosphorylated Tie2 protein. The phosphorylated Tie2 protein was quantified by means of an immunochemical method including an immunoassay. The method was performed as follows.
At first, normal human umbilical vein endothelial cells (HUVECs) were cultured to confluent, inoculated into a 96-well plate at 2.0×10^4 cells/0.1 mL/well, and then cultured over night in a low-serum growth medium for vascular endothelial cells (HUMEDIA-EG2, product of KURABO INDUSTRIES LTD.) Next, the low-serum growth medium was replaced by 0.1 mL of a basal medium for vascular endothelial cells (HUMEDIA-EB2, product of KURABO INDUSTRIES LTD.) at 3 hours before cell stimulation (addition of test samples), and the post-cultured HUVECs were again cultured therein. […] After completion of the incubation, the amount of phosphorylated Tie2 and the total amount of Tie2 in the cells were measured by the immunoassay kit (HUMAN PHOSPHO-TIE2 (Y992) IMMUNOASSAY, product of R&D Systems) according to a manufacturer's protocol to thereby calculate the ratio of the amount of phosphorylated Tie2 to the total amount of Tie2.
Similarly, the ratio of the amount of phosphorylated Tie2 to the total amount of Tie2 was calculated in the case of using dimethyl sulfoxide (DMSO) as a negative control. […]

T1 sequence (Q02763 23-1124): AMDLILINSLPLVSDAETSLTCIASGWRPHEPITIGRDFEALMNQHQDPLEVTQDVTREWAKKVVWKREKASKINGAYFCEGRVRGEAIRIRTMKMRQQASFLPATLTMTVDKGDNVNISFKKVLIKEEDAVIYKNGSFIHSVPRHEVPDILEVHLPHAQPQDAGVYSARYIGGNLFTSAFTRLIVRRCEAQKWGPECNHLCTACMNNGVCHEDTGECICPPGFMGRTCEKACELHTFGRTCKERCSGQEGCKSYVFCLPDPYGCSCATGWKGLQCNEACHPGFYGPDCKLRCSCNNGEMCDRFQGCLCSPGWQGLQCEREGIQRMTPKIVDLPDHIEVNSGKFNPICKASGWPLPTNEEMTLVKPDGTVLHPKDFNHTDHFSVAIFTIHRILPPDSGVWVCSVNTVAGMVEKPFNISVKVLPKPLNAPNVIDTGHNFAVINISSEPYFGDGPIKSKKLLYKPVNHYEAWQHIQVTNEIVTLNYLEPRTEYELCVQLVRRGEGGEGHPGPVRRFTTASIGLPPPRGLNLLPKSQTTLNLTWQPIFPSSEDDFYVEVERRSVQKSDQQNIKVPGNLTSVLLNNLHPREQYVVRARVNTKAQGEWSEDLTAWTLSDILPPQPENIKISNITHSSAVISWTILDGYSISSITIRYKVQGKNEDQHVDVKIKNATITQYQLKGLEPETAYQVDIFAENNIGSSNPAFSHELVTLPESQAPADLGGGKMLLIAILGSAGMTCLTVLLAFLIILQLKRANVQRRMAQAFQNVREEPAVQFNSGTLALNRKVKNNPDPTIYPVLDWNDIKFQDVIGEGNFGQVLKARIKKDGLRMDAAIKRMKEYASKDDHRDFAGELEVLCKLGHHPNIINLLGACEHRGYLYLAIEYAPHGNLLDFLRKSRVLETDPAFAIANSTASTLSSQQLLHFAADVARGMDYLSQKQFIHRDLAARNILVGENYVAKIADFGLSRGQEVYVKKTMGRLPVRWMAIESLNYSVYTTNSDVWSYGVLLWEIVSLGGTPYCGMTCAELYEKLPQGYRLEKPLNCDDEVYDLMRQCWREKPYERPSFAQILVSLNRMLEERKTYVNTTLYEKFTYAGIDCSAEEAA

Cc1ccc(C(=O)Nc2ccc(S(=O)(=O)O)c3cc(S(=O)(=O)O)cc(S(=O)(=O)O)c23)cc1NC(=O)c1cccc(NC(=O)Nc2cccc(C(=O)Nc3cc(C(=O)Nc4ccc(S(=O)(=O)O)c5cc(S(=O)(=O)O)cc(S(=O)(=O)O)c45)ccc3C)c2)c1 [Suramin]
Number of vascular branching ([1]; 50 μM, Means ± S.E., n = 3): 30.0 ± 4.0
inhibition at 50 µM ([1]; Homo sapiens, read-out: Angiogenesis inhibitory rate (%)): 70.8%

B1: Angiopoietin-1: Angiopoietin-1 (product of R&D Systems, Inc.) as a positive control (protein, UniProt Q15389 16-498, looked up)
Angiopoietin-1: HIGCSNQRRSPENSGRRYNRIQHGQCAYTFILPEHDGNCRESTTDQYNTNALQRDAPHVEPDFSSQKLQHLEHVMENYTQWLQKLENYIVENMKSEMAQIQQNAVQNHTATMLEIGTSLLSQTAEQTRKLTDVETQVLNQTSRLEIQLLENSLSTYKLEKQLLQQTNEILKIHEKNSLLEHKILEMEGKHKEELDTLKEEKENLQGLVTRQTYIIQELEKQLNRATTNNSVLQKQQLELMDTVHNLVNLCTKEGVLLKGGKREEEKPFRDCADVYQAGFNKSGIYTIYINNMPEPKKVFCNMDVNGGGWTVIQHREDGSLDFQRGWKEYKMGFGNPSGEYWLGNEFIFAITSQRQYMLRIELMDWEGNRAYSQYDRFHIGNEKQNYRLYLKGHTGTAGKQSSLILHGADFSTKDADNDNCMCKCALMLTGGWWFDACGPSNLNGMFYTAGQNHGKLNGIKWHYFKGPSYSLRSTTMMIRPLDF
Activation rate of Tie2 (%) (Tie2; 0.5 μg/mL, 10 min, negative control DMSO = 100, Means ± S.E., n = 4): 130.2 ± 8.3 %
Tie2 activating effect (immunoassay), in words (Tie2; immunoassay kit): verified to be phosphorylated and thus activated
